Consider three compounds from PubChem BioAssay AID1224 (NMMLSC, 2008).

Calls of active or inactive are those of the source. How the calls were made is not given here.

The target in this assay is G-protein coupled estrogen receptor 1 (Homo sapiens) (UniProt Q99527). Put plainly: fluorescent ligand displacement from GPER – cell-based, dose response (AID 1224). To be noted: GPR30-expressing cells; for EC50: fluorescent ligand binding displacement.

For the compound `CC(=O)Oc1ccc(C2Nc3c(C(=O)O)ccc([N+](=O)[O-])c3C3C=CCC32)cc1` (stereo not drawn), the EC50 was > 10000 nM (inactive).

In the case of `CC(=O)c1ccc2c(c1)C1C=CCC1C(c1cccc([N+](=O)[O-])c1)N2` (stereo not drawn), the “remaining binding, lower = displacement” value (at 100 µM (top of the series)) is “inactive”. Turning to `O=C(O)c1ccc([N+](=O)[O-])c2c1NC(c1ccccc1)C1CC=CC21` (stereo not drawn), the EC50 is 62.3 nM.
